# Patent US20080009418A1, “Selective Inhibitors” (Alchemia LTD., priority 2004, published 2008)
# Legend:
# Details in all cases: compound at 10 μM
# Human μ-opioid (MOP) = target: T1, Human μ-opioid (MOP) (Homo sapiens, UniProt P35372); experiment: Radioligand binding, human μ-opioid (MOP) membranes, FlashPlate, [3H]-Naloxone
# T1 construct: purchased Perkin Elmer Biosignal
# Method in brief: (§1)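 Cloned human receptor membranes were coated onto FlashPlate wells and incubated with radioligand and compound (added from a 0.5 mM DMSO daughter plate) for 1 hour at room temperature in the dark. Scintillation counting gave percent inhibition, with DMSO defining total and reference ligand defining non-specific binding.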
# [1] = target: T2, Human neuropeptide Y (NPY-Y1) (Homo sapiens, UniProt P25929); experiment: Radioligand binding, human neuropeptide Y NPY-Y1 membranes, FlashPlate, [125I]-PYY
# T2 construct: purchased Perkin Elmer Biosignal
# T2 sequence (P25929 1-384): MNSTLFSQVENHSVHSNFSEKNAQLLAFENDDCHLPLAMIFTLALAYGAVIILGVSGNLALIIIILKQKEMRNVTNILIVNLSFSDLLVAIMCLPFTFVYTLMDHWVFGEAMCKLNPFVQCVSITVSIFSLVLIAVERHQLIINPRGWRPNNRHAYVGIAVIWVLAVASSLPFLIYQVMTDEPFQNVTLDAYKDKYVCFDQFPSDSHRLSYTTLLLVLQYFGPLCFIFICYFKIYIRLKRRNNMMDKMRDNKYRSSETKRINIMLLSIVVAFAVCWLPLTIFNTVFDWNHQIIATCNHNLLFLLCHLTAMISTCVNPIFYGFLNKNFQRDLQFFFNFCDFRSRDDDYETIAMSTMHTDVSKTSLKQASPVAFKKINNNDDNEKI
# Method in brief: as §1
# Human Melanocortin (MC3) = target: T3, Human Melanocortin (MC3) (Homo sapiens, UniProt P41968); experiment: Radioligand binding, human melanocortin MC3 membranes, FlashPlate, [125I]-NDP-αMSH
# T3 construct: purchased Perkin Elmer Biosignal
# T3 sequence (P41968 whole entry): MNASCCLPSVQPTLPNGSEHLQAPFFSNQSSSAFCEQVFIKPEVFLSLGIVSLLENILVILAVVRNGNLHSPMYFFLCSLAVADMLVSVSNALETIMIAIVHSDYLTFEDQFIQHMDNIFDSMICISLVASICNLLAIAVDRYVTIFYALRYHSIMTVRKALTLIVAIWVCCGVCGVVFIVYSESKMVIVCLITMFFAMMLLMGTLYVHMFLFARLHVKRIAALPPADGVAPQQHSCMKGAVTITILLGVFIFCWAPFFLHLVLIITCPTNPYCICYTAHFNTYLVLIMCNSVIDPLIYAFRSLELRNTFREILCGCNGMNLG
# Method in brief: as §1
# [2] = target: T4, Human melanin-concentrating hormone (MCH1) (Homo sapiens, UniProt Q99705); experiment: Radioligand binding, human melanin-concentrating hormone MCH1 membranes, FlashPlate, [125I]-S36057
# T4 construct: purchased Perkin Elmer Biosignal
# T4 sequence (Q99705 whole entry): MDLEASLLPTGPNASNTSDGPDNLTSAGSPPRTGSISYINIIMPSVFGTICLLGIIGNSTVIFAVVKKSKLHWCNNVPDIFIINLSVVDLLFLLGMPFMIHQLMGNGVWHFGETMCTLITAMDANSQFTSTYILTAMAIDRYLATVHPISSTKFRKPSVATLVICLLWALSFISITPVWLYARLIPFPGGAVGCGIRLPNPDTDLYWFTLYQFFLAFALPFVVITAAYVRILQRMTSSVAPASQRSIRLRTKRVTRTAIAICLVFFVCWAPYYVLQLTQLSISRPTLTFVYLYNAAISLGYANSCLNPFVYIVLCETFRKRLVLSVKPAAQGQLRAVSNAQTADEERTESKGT
# Method in brief: as §1
# Human melanocortin (MC5) = target: T5, Human melanocortin (MC5) (Homo sapiens, UniProt P33032); experiment: Radioligand binding, human melanocortin MC5 membranes, FlashPlate, [125I]-NDP-αMSH
# T5 construct: purchased Perkin Elmer Biosignal
# T5 sequence (P33032 whole entry): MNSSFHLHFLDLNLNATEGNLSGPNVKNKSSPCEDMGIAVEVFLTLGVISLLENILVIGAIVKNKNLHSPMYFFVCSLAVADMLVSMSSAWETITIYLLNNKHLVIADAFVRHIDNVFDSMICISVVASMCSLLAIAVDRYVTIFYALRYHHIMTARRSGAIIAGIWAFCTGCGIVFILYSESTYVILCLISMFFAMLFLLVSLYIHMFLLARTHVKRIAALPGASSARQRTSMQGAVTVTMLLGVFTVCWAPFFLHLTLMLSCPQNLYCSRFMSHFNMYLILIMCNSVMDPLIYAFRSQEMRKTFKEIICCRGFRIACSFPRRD
# Method in brief: as §1
# Human δ-opioid (DOP) = target: T6, Human δ-opioid (DOP) (Homo sapiens, UniProt P41143); experiment: Radioligand binding, human δ-opioid (DOP) membranes, FlashPlate, [3H]-Bremazocine
# T6 construct: purchased Perkin Elmer Biosignal
# T6 sequence (P41143 whole entry): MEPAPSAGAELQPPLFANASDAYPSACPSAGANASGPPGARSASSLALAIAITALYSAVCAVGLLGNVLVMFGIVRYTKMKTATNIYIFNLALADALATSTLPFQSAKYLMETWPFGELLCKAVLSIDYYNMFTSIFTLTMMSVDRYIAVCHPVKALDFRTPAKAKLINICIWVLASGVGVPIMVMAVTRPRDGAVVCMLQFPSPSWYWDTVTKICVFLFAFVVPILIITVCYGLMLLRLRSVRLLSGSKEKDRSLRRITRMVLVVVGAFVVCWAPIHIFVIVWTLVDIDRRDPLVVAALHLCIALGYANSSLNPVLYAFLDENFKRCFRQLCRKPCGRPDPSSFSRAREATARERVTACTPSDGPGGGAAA
# Method in brief: as §1
# Human Melanocortin (MC4) = target: T7, Human Melanocortin (MC4) (Homo sapiens, UniProt P32245); experiment: Radioligand binding, human melanocortin MC4 membranes, FlashPlate, [125I]-NDP-αMSH
# T7 construct: purchased Perkin Elmer Biosignal
# T7 sequence (P32245 whole entry): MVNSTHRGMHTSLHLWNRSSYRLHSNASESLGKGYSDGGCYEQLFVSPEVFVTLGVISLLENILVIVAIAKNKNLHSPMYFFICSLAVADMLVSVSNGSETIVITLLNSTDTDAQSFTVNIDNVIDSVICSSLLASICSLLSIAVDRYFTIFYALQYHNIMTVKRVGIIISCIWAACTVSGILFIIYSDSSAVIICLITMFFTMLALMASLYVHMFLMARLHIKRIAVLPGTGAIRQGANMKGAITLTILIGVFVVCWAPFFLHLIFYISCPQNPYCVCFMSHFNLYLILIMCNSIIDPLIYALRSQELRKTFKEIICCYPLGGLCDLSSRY
# Method in brief: as §1
# Human κ-Opioid (KOP) = target: T8, Human κ-Opioid (KOP) (Homo sapiens, UniProt P41145); experiment: Radioligand binding, human κ-opioid (KOP) membranes, filtration, [3H]-Diprenorphine
# T8 construct: purchased Perkin Elmer Biosignal
# T8 sequence (P41145 whole entry): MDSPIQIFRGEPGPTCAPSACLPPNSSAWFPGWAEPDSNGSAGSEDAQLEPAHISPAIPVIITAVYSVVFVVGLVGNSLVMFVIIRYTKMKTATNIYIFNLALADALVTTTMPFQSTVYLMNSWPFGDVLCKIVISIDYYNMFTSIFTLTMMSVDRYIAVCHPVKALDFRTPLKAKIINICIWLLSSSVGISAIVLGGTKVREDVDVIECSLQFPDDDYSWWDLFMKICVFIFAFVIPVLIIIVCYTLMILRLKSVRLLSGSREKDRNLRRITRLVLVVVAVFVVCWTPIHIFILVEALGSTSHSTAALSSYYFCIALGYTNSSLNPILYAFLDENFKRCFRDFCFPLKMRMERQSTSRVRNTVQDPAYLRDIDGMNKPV
# Method in brief: (§2)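 Percent inhibition of radioligand binding measured on recombinant human membranes: NK1 with [125I]-Substance P, KOP with [3H]-Diprenorphine. Incubation 1 h at room temperature, then harvest onto 0.3% PEI-soaked filters, cold Tris-HCl pH 7.4 washes and scintillation counting; non-specific binding from reference ligand wells.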
# Human opioid (ORL1) = target: T9, Human opioid (ORL1) (Homo sapiens, UniProt P41146); experiment: Radioligand binding, human opioid ORL1 membranes, FlashPlate, [125I]-Nociceptin
# T9 construct: purchased Perkin Elmer Biosignal
# T9 sequence (P41146 whole entry): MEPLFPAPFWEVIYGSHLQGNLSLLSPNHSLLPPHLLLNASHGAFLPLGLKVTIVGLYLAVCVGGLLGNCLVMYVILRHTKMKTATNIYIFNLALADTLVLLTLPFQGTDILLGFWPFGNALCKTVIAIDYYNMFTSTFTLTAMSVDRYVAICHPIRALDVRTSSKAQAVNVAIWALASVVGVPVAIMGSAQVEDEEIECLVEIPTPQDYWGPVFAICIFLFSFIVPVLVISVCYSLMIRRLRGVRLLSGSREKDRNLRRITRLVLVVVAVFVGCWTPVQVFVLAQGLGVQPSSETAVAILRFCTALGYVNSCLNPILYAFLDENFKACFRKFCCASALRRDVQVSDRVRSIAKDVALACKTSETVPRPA
# Method in brief: as §1
# Human neurokinin (NK1) = target: T10, Human neurokinin (NK1) (Homo sapiens, UniProt P25103); experiment: Radioligand binding, human neurokinin NK1 membranes, filtration, [125I]-Substance P
# T10 construct: purchased Perkin Elmer Biosignal
# T10 sequence (P25103 whole entry): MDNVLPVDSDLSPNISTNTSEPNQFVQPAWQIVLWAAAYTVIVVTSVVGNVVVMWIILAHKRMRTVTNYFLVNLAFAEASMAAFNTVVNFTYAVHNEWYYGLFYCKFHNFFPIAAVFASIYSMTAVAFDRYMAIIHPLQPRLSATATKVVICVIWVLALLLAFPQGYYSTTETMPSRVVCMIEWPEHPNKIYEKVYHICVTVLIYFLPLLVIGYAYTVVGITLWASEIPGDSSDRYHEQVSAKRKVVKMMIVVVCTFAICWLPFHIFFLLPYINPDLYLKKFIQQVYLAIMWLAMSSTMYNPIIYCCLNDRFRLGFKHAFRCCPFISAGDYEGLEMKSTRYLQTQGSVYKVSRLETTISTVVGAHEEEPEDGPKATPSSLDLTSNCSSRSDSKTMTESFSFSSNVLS
# Method in brief: as §2
# Mouse urotensin (mUR2) = target: T11, Mouse urotensin (mUR2) (Mus musculus, UniProt Q8VIH9); experiment: Radioligand binding, mouse urotensin mUR2 membranes, FlashPlate, [125I]-Urotensin II
# T11 construct: purchased Perkin Elmer Biosignal
# T11 sequence (Q8VIH9 1-385): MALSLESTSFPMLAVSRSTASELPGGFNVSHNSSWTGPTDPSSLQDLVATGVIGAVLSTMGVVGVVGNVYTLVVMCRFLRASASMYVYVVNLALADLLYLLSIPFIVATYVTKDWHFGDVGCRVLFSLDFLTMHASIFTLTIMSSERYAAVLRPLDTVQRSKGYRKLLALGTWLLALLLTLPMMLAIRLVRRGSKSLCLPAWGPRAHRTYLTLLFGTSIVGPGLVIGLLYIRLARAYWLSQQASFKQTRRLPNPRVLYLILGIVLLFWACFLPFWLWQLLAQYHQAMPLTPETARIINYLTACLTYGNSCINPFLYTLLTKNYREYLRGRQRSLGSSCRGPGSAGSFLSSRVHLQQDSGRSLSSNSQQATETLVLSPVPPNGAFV
# Method in brief: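 Cloned mouse urotensin (mUR2) receptor membranes from Perkin Elmer Biosignal were immobilized in FlashPlate microplates using a proprietary coating. Each well got 19.5 μl buffer, then 0.5 μl of DMSO, reference ligand, or compound. Adding 5 μl of [125I]-Urotensin II, diluted to 5× final concentration in binding buffer, started binding. Plates were sealed with TopSeal-A and incubated 1 hour at room temperature in the dark. Wells were counted for 30 seconds each on a TopCount after a 60-second delay, and percentage inhibition was calculated.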
# T1 sequence (P35372 whole entry): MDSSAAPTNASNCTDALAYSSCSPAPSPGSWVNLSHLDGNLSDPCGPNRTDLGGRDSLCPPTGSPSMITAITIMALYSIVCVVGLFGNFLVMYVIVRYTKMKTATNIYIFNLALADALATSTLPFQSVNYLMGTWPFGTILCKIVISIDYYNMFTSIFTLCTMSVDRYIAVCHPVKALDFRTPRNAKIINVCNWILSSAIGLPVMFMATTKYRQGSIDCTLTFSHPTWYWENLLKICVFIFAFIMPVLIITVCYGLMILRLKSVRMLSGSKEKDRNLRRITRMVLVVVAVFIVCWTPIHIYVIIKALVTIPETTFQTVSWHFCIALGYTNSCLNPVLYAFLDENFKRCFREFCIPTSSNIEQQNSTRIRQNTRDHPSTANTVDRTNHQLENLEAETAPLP
smiles,measurement,setting,value
CO[C@H]1[C@H](O)[C@@H](COCc2ccccc2)OC(OCc2ccc3ccccc3c2)[C@@H]1NC(=O)CNC(=N)N (stereo partly drawn) [compound 74],A7 radioligand binding inhibition,Human μ-opioid (MOP); human μ-opioid (MOP) membranes,+ (“+” indicates greater than 50% inhibition at 10 μM)
same,A9 radioligand binding inhibition,[1]; human NPY-Y1 membranes,− (“−” indicates less than 50% inhibition at 10 μM)
same,A3 radioligand binding inhibition,Human Melanocortin (MC3); human melanocortin MC3 membranes,− (“−” indicates less than 50% inhibition at 10 μM)
same,A6 radioligand binding inhibition,[2]; human MCH1 membranes,− (“−” indicates less than 50% inhibition at 10 μM)
same,A5 radioligand binding inhibition,Human melanocortin (MC5); human melanocortin MC5 membranes,+ (“+” indicates greater than 50% inhibition at 10 μM)
same,A1 radioligand binding inhibition,Human δ-opioid (DOP); human δ-opioid (DOP) membranes,− (“−” indicates less than 50% inhibition at 10 μM)
same,A4 radioligand binding inhibition,Human Melanocortin (MC4); human melanocortin MC4 membranes,− (“−” indicates less than 50% inhibition at 10 μM)
same,A2 radioligand binding inhibition,Human κ-Opioid (KOP); human κ-opioid (KOP) membranes,− (“−” indicates less than 50% inhibition at 10 μM)
same,A10 radioligand binding inhibition,Human opioid (ORL1); human ORL1 membranes,− (“−” indicates less than 50% inhibition at 10 μM)
same,A8 radioligand binding inhibition,Human neurokinin (NK1); human neurokinin NK1 membranes,+ (“+” indicates greater than 50% inhibition at 10 μM)
same,A11 radioligand binding inhibition,Mouse urotensin (mUR2); mouse urotensin mUR2 membranes,− (“−” indicates less than 50% inhibition at 10 μM)
NCCC(=O)NC1O[C@H](CO)[C@@H](O)[C@H](OCc2cccc3ccccc23)[C@H]1NC(=O)c1ccccc1 (stereo partly drawn) [compound 358],"A7: inhibition of radioligand binding, human μ-opioid (MOP)",Human μ-opioid (MOP); [3H]-Naloxone,− (“−” indicates less than 50% inhibition at 10 μM)
same,"A9: inhibition of radioligand binding, human neuropeptide Y (NPY-Y1)",[1]; [125I]-PYY,+ (“+” indicates greater than 50% inhibition at 10 μM)
same,"A3: inhibition of radioligand binding, human melanocortin (MC3)",Human Melanocortin (MC3); [125I]-NDP-αMSH,− (“−” indicates less than 50% inhibition at 10 μM)
same,"A6: inhibition of radioligand binding, human melanin-concentrating hormone (MCH1)",[2]; [125I]-S36057,− (“−” indicates less than 50% inhibition at 10 μM)
same,"A5: inhibition of radioligand binding, human melanocortin (MC5)",Human melanocortin (MC5); [125I]-NDP-αMSH,− (“−” indicates less than 50% inhibition at 10 μM)
same,"A1: inhibition of radioligand binding, human δ-opioid (DOP)",Human δ-opioid (DOP); [3H]-Bremazocine,− (“−” indicates less than 50% inhibition at 10 μM)
same,"A4: inhibition of radioligand binding, human melanocortin (MC4)",Human Melanocortin (MC4); [125I]-NDP-αMSH,− (“−” indicates less than 50% inhibition at 10 μM)
same,"A2: inhibition of radioligand binding, human κ-opioid (KOP)",Human κ-Opioid (KOP); [3H]-Diprenorphine,− (“−” indicates less than 50% inhibition at 10 μM)
same,"A10: inhibition of radioligand binding, human opioid (ORL1)",Human opioid (ORL1); [125I]-Nociceptin,− (“−” indicates less than 50% inhibition at 10 μM)
same,"A8: inhibition of radioligand binding, human neurokinin (NK1)",Human neurokinin (NK1); [125I]-Substance P,− (“−” indicates less than 50% inhibition at 10 μM)
same,"A11: inhibition of radioligand binding, mouse urotensin (mUR2)",Mouse urotensin (mUR2); [125I]-Urotensin II,− (“−” indicates less than 50% inhibition at 10 μM)
CO[C@H]1[C@H](O)[C@@H](COCc2ccc(-c3ccccc3)cc2)OC(OCCc2ccccc2)[C@@H]1NC(=O)CNC(=N)N (stereo partly drawn) [compound 109],"A7 radioligand binding, percentage inhibition",Human μ-opioid (MOP); [3H]-Naloxone,− (“−” indicates less than 50% inhibition at 10 μM)
same,"A9 radioligand binding, percentage inhibition",[1]; [125I]-PYY,− (“−” indicates less than 50% inhibition at 10 μM)
same,"A3 radioligand binding, percentage inhibition",Human Melanocortin (MC3); [125I]-NDP-αMSH,+ (“+” indicates greater than 50% inhibition at 10 μM)
same,"A6 radioligand binding, percentage inhibition",[2]; [125I]-S36057,− (“−” indicates less than 50% inhibition at 10 μM)
same,"A5 radioligand binding, percentage inhibition",Human melanocortin (MC5); [125I]-NDP-αMSH,+ (“+” indicates greater than 50% inhibition at 10 μM)
same,"A1 radioligand binding, percentage inhibition",Human δ-opioid (DOP); [3H]-Bremazocine,− (“−” indicates less than 50% inhibition at 10 μM)
same,"A4 radioligand binding, percentage inhibition",Human Melanocortin (MC4); [125I]-NDP-αMSH,+ (“+” indicates greater than 50% inhibition at 10 μM)
same,"A2 radioligand binding, percentage inhibition",Human κ-Opioid (KOP); [3H]-Diprenorphine,− (“−” indicates less than 50% inhibition at 10 μM)
same,"A10 radioligand binding, percentage inhibition",Human opioid (ORL1); [125I]-Nociceptin,− (“−” indicates less than 50% inhibition at 10 μM)
same,"A8 radioligand binding, percentage inhibition",Human neurokinin (NK1); [125I]-Substance P,− (“−” indicates less than 50% inhibition at 10 μM)
same,"A11 radioligand binding, percentage inhibition",Mouse urotensin (mUR2); [125I]-Urotensin II,− (“−” indicates less than 50% inhibition at 10 μM)
